According to patent US6685617B1, “Inhibitors of α4β1 mediated cell adhesion” (Pharmacia & Upjohn Company, priority 1998, dated 2004):

Legend:
[1] = target: T1, α4β1 integrin (Jurkat T-cell adhesion to IL-1 stimulated endothelial cell monolayers) (Homo sapiens, UniProt P05556+P13612); test: Jurkat-endothelial cell adhesion assay (Jurkat EC); type: cell-based; settings: Jurkat cells on IL-1 stimulated human umbilical vein endothelial cells; read-out: JK/EC (Jurkat EC Assay IC50 value range)
T1 construct: a T-cell line, Jurkat, known to express the α4β1 integrin; host or cells: Jurkat T-cell line
T1 sequence (P13612 34-1032): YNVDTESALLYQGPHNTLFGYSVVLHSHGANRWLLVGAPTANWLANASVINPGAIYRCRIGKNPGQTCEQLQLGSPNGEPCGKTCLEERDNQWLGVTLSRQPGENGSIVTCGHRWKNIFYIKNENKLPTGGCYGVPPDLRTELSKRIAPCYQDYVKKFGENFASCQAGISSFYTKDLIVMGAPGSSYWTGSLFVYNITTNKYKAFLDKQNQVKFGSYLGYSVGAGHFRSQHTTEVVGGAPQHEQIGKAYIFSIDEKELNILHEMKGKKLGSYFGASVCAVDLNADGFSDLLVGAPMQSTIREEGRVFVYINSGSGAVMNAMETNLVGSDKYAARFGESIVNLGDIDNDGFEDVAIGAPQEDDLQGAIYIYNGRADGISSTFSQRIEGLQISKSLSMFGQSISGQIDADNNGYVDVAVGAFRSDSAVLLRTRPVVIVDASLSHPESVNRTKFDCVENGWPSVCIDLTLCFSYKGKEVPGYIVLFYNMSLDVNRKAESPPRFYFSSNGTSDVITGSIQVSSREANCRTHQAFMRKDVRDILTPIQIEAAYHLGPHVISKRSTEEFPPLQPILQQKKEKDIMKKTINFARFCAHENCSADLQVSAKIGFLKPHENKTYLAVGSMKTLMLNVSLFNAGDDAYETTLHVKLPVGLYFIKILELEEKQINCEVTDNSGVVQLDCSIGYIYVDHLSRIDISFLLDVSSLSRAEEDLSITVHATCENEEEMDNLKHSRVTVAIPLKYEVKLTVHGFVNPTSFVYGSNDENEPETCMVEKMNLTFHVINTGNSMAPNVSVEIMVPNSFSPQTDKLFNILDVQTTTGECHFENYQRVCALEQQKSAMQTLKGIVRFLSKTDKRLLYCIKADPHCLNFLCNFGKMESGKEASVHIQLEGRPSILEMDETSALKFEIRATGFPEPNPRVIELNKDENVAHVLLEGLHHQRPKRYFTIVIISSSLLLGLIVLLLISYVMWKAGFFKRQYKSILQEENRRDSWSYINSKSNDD
T1 sequence (P05556 21-798): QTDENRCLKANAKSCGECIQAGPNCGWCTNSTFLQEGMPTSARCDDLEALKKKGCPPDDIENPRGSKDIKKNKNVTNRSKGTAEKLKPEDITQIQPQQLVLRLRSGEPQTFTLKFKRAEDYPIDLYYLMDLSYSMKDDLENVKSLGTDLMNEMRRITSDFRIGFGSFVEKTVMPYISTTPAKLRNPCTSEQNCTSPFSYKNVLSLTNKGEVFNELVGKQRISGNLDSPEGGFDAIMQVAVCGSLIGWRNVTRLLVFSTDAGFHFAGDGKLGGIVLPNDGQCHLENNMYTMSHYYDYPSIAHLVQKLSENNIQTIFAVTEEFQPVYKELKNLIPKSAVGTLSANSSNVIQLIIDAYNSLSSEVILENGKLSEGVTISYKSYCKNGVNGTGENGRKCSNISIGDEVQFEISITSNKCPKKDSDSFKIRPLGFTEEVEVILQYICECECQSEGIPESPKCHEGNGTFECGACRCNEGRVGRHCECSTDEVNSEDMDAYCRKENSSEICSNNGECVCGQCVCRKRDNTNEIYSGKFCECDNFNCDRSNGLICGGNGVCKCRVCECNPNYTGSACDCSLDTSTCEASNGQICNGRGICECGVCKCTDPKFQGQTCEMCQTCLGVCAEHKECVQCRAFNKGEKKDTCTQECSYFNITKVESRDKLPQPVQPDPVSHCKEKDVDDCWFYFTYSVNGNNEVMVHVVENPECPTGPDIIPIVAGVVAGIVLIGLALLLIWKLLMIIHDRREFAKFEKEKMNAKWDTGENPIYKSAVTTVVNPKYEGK
Method in brief: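 BCECF-AM-labelled Jurkat cells were mixed with compound, generally 100, 20, 5 and 1.25 μM, and added to HUVEC monolayers (passage ≤6) pre-stimulated 4 hr at 37° C with 0.1 ng/ml IL-1. After 5 min on ice and 20 min at 37° C, washed wells were read by fluorescence as % adhesion relative to no compound.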

[2] = target: T2, α4β1 integrin (Jurkat cell adhesion to immobilized CS-1 derived peptide CLHPGEILDVPST) (Homo sapiens, UniProt P05556+P13612); test: Jurkat-CS-1 assay; type: cell-based; settings: Jurkat cells on CS-1 peptide coated plates; read-out: JK/CS-1 (Jurkat CS-1 Assay IC50 value range)
T2 construct: 100 μl of Jurkat cells (2.5×10^6 cells/ml) in DMEM plus BSA; host or cells: Jurkat T-cell line
T2 sequence (P13612 34-1032): as the sequence (P13612 34-1032) above
T2 sequence (P05556 21-798): as the sequence (P05556 21-798) above
Method in brief: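 CS-1 peptide was SPDP-crosslinked onto HSA-coated plates and blocked with BSA. Jurkat cells (2.5×10^6 cells/ml) in DMEM/BSA were mixed with compound, generally at 100, 20, 5 and 1.25 μM, and allowed to adhere for 1 hr at 37° C. Bound cells were fixed, stained with toluidine blue and quantified by OD590.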

Compound	IC50 [1]	IC50 [2]
O=C(O)CCC(=O)N1CSC[C@H]1C(=O)N[C@@H](Cc1ccc(NC(=O)c2c(Cl)cccc2Cl)cc1)C(=O)O (relative stereo) [Example 67, [R-(R*,S*)]-4-[[[1-Carboxy-2-[4-[(2,6-dichlorobenzoyl)amino]phenyl]ethyl]amino]carbonyl]-γ-oxo-3-thiazolidinebutanoic Acid]	≥ 1000 nM	50 to 750 nM
O=C(O)CCCC(=O)N1CSC[C@H]1C(=O)N[C@@H](Cc1ccc(NC(=O)c2c(Cl)cccc2Cl)cc1)C(=O)O (relative stereo) [Example 68, [R-(R*,S*)]-4-[[[1-Carboxy-2-[4-[(2,6-dichlorobenzoyl)amino]phenyl]ethyl]amino]carbonyl]-δ-oxo-3-thiazolidinepentanoic Acid]	≥ 1000 nM	50 to 750 nM
COC(=O)[C@H](Cc1ccc(NC(=O)c2c(Cl)cccc2Cl)cc1)NC(=O)[C@@H]1CSC(C)(C)N1C(=O)OC(C)(C)C (relative stereo) [Example 72, [R-(R*,S*)]-4-[[[1-[[4-[(2,6-Dichlorobenzoyl)amino]phenyl]methyl]-2-methoxy-2-oxo-ethyl]amino]carbonyl]-2,2-dimethyl-3-thiazolidinecarboxylic Acid 3-(1,1-Dimethylethyl)ester]	≥ 1000 nM	≥ 750 nM
CC(C)(C)OC(=O)N1[C@H](C(=O)N[C@@H](Cc2ccc(NC(=O)c3c(Cl)cccc3Cl)cc2)C(=O)O)CSC1(C)C (relative stereo) [Example 73, [R-(R*,S*)]-4-[[[Carboxy-2-[4-[(2,6-dichlorobenzoyl)amino]phenyl]ethyl]amino]carbonyl]-2,2-dimethyl-3-thiazolidinecarboxylic Acid 3-(1,1-Dimethylethyl)ester]	≥ 1000 nM	50 to 750 nM
COC(=O)[C@H](Cc1ccc(NC(=O)c2c(Cl)cccc2Cl)cc1)NC(=O)[C@H]1CSC(C)(C)N1C(=O)OC(C)(C)C (relative stereo) [Example 75, [S-(R*,R*)]-4-[[[1-[[4-[(2,6-Dichlorobenzoyl)amino]phenyl]methyl]-2-methoxy-2-oxo-ethyl]amino]carbonyl]-2,2-dimethyl-3-thiazolidinecarboxylic Acid 3-(1,1-Dimethylethyl)ester]	≥ 1000 nM	≥ 750 nM
CCOC(=O)N1[C@@H](C(=O)N[C@@H](Cc2ccc(NC(=O)c3c(Cl)cccc3Cl)cc2)C(=O)OC)CSC12CCCC2 (relative stereo) [Example 77, [S-(R*,R*)]-3-[[[1-[[4-[(2,6-Dichlorobenzoyl)amino]phenyl]methyl]-2-methoxy-2-oxoethyl]amino]carbonyl]-1-thia-4-azaspiro[4.4]nonane-4-carboxylic Acid 4-Ethyl Ester]	≥ 1000 nM	≥ 750 nM
CCOC(=O)N1[C@@H](C(=O)N[C@@H](Cc2ccc(NC(=O)c3c(Cl)cccc3Cl)cc2)C(=O)O)CSC12CCCC2 (relative stereo) [Example 78, [S-(R*,R*)]-3-[[[1-Carboxy-2-[4-[(2,6-dichlorobenzoyl)amino]phenyl]ethyl]amino]carbonyl]-1-thia-4-azaspiro[4.4]nonane-4-carboxylic Acid 4-Ethyl Ester]	≥ 1000 nM	50 to 750 nM
CCOC(=O)N1[C@@H](C(=O)N[C@@H](Cc2ccc(NC(=O)c3c(Cl)cccc3Cl)cc2)C(=O)OC)CSC12CCCCC2 (relative stereo) [Example 79, [S-(R*,R*)]-3-[[[1-[[4-[(2,6-Dichlorobenzoyl)amino]phenyl]methyl]-2-methoxy-2-oxoethyl]amino]carbonyl]-1-thia-4-azaspiro[4.5]decanecarboxylic Acid 4-Ethyl Ester]	≥ 1000 nM	≥ 750 nM
CCOC(=O)N1[C@@H](C(=O)N[C@@H](Cc2ccc(NC(=O)c3c(Cl)cccc3Cl)cc2)C(=O)O)CSC12CCCCC2 (relative stereo) [Example 80, [S-(R*,R*)]-3-[[[1-Carboxy-2-[4-[(2,6-dichlorobenzoyl)amino]phenyl]ethyl]amino]carbonyl]-1-thia-4-azaspiro[4.5]decane-4-carboxylic Acid 4-Ethyl Ester]	≥ 1000 nM	≥ 750 nM
COC(=O)CCC(=O)N1[C@@H](C(=O)N[C@@H](Cc2ccc(NC(=O)c3c(Cl)cccc3Cl)cc2)C(=O)OC)C(C)(C)SC1(C)C (relative stereo) [Example 86, [S-(R*,R*)]-4-[[[1-[[4-[(2,6-Dichlorobenzoyl)amino]phenyl]methyl]-2-methoxy-2-oxoethyl]amino]carbonyl]-2,2,5,5-tetramethyl-γ-oxo-3-thiazolidinebutanoic Acid Methyl Ester]	≥ 1000 nM	≥ 750 nM
CC1(C)SC(C)(C)N(C(=O)CCCC(=O)O)[C@@H]1C(=O)N[C@@H](Cc1ccc(NC(=O)c2c(Cl)cccc2Cl)cc1)C(=O)O (relative stereo) [Example 88, [R-(R*,S*)]-4-[[[1-Carboxy-2-[4-[(2,6-dichlorobenzoyl)amino]phenyl]ethyl]amino]carbonyl]-2,2,5,5-tetramethyl-δ-oxo-3-thiazolidinepentanoic Acid]	≥ 1000 nM	50 to 750 nM
NC(=O)[C@H](Cc1ccc(OCc2c(Cl)cccc2Cl)cc1)NC(=O)[C@H]1CSCN1C(=O)OCCN1CCOCC1 (relative stereo) [Example 89, [S-(R*,R*)]-4-[[[1-[[4-[(2,6-Dichlorophenyl)methoxy]phenyl]methyl]-2-amino-2-oxoethyl]amino]carbonyl]-3-thiazolidinecarboxylic Acid 3-[2-(4-morpholinyl)ethyl]ester]	≥ 1000 nM	50 to 750 nM
COC(=O)[C@H](Cc1ccc(NC(=O)c2c(Cl)cccc2Cl)cc1)NC(=O)[C@H]1CSCN1C(=O)CCCC(=O)O (relative stereo) [Example 150, [S-(R*,R*)]-4-[[[1-[[4-[(2,6-Dichlorobenzoyl)amino]phenyl]methyl]-2-methoxy-2-oxoethyl]amino]carbonyl]-δ-oxo-3-thiazoidinepentanoic Acid]	250 to 1000 nM	50 to 750 nM

Second part, the compound after the results:

IC50 [1]	IC50 [2]	Compound
≤ 250 nM	≤ 50 nM	O=C(O)CCC(=O)N1CSC[C@@H]1C(=O)N[C@@H](Cc1ccc(OCc2c(Cl)cccc2Cl)cc1)C(=O)O (relative stereo) [Example 64, [S-(R*,R*)]-4-[[[1-Carboxy-2-[4-[(2,6-dichlorophenyl)methoxy]phenyl]ethyl]amino]carbonyl]-γ-oxo-3-thiazolidinebutanoic Acid]
≤ 250 nM	50 to 750 nM	CC(C)(C)OC(=O)N1[C@@H](C(=O)N[C@@H](Cc2ccc(NC(=O)c3c(Cl)cccc3Cl)cc2)C(=O)O)CSC1(C)C (relative stereo) [Example 76, [S-(R*,R*)]-4-[[[1-Carboxy-2-[4-[(2,6-dichlorobenzoyl)amino]phenyl]ethyl]amino]carbonyl]-2,2-dimethyl-3-thiazolidinecarboxylic Acid 3-(1,1-Dimethylethyl)ester]
250 to 1000 nM	50 to 750 nM	CCOC(=O)N1[C@@H](C(=O)N[C@@H](Cc2ccc(NC(=O)c3c(Cl)cccc3Cl)cc2)C(=O)O)C(C)(C)SC1(C)C (relative stereo) [Example 82, [S-(R*,R*)]-4-[[[1-Carboxy-2-[4-[(2,6-dichlorobenzoyl)amino]phenyl]ethyl]amino]carbonyl]-2,2,5,5-tetramethyl-3-thiazolidinecarboxylic Acid 3-Ethyl Ester]
≤ 250 nM	≤ 50 nM	CC1(C)SC[C@H](C(=O)N[C@@H](Cc2ccc(NC(=O)c3c(Cl)cccc3Cl)cc2)C(=O)O)N1C(=O)CCC(=O)O (relative stereo) [Example 85, [S-(R*,R*)]-4-[[[1-Carboxy-2-[4-[(2,6-dichlorobenzoyl)amino]phenyl]ethyl]amino]carbonyl]-2,2-dimethyl-γ-oxo-3-thiazolidinebutanoic Acid]
≤ 250 nM	≤ 50 nM	O=C(O)CCC(=O)N1CCSC[C@H]1C(=O)N[C@@H](Cc1ccc(NC(=O)c2c(Cl)cccc2Cl)cc1)C(=O)O (relative stereo) [Example 99, [R-(R*,S*)]-3-[[[1-Carboxy-2-[4-[(2,6-dichlorobenzoyl)amino]phenyl]ethyl]amino]carbonyl]-γ-oxo-4-thiomorpholinebutanoic Acid]
250 to 1000 nM	50 to 750 nM	CC(C)(C)OC(=O)N1CCSC[C@H]1C(=O)N[C@@H](Cc1ccc(NC(=O)c2c(Cl)cccc2Cl)cc1)C(=O)O (relative stereo) [Example 100, [R-(R*,S*)]-3-[[[1-Carboxy-2-[4-[(2,6-dichlorobenzoyl)amino]phenyl]ethyl]amino]carbonyl]-4-thiomorpholinecarboxylic Acid 4-(1,1-Dimethylethyl)ester]
≤ 250 nM	≤ 50 nM	COC(=O)[C@H](Cc1ccc(NC(=O)c2c(Cl)cccc2Cl)cc1)NC(=O)[C@H]1CSCN1C(=O)OCc1ccccn1 (relative stereo) [Example 148, [S-(R*,R*)]-4-[[[1-[[4-[(2,6-Dichlorobenzoyl)amino]phenyl]methyl]-2-methoxy-2-oxoethyl]amino]carbonyl]-3-thiazolidinecarboxylic Acid 3-(2-Pyridinylmethyl)ester]
≤ 250 nM	≤ 50 nM	O=C(Nc1ccc(C[C@H](NC(=O)[C@H]2CSCN2C(=O)OCc2ccccn2)C(=O)O)cc1)c1c(Cl)cccc1Cl (relative stereo) [Example 149, [S-(R*,R*)]-4-[[[-Carboxy-2-[4-[(2,6-dichlorobenzoyl)amino]phenyl]ethyl]amino]carbonyl]-3-thiazolidinecarboxylic Acid 3-(2-pyridinylmethyl)ester]
